Data from the NIST ThermoML archive (doi:10.1016/j.tca.2017.03.018).
Numbers after ± are expanded uncertainties.

Columns and labels:
[1] = relative permittivity at zero frequency (dimensionless); details: 100 kPa, Liquid, time-domain reflectometry
[2] = relative permittivity at zero frequency (dimensionless); wn = mass fraction of the nth substance listed; details: 100 kPa, Liquid, time-domain reflectometry

## C[S+](C)[O-] [dimethyl sulfoxide]
[1]; 283.15 K
  relative permittivity at zero frequency: 50.58 ± 1
[1]; 288.15 K
  relative permittivity at zero frequency: 49.42 ± 0.99
[1]; 293.15 K
  relative permittivity at zero frequency: 47.81 ± 0.96
[1]; 298.15 K
  relative permittivity at zero frequency: 47.3 ± 0.95

## C[S+](C)[O-] [dimethyl sulfoxide] + OC[C@@H](O)[C@@H](O)CO
[2]; 283.15 K, w2 = 0
  relative permittivity at zero frequency: 50.58 ± 1
[2]; 288.15 K, w2 = 0
  relative permittivity at zero frequency: 49.42 ± 0.99
[2]; 293.15 K, w2 = 0
  relative permittivity at zero frequency: 47.81 ± 0.96
[2]; 298.15 K, w2 = 0
  relative permittivity at zero frequency: 47.3 ± 0.95

## C[S+](C)[O-] [dimethyl sulfoxide] + OC[C@@H](O)[C@@H](O)[C@H](O)[C@H](O)CO
[2]; 283.15 K, w2 = 0
  relative permittivity at zero frequency: 50.58 ± 1
[2]; 288.15 K, w2 = 0
  relative permittivity at zero frequency: 49.42 ± 0.99
[2]; 293.15 K, w2 = 0
  relative permittivity at zero frequency: 47.81 ± 0.96
[2]; 298.15 K, w2 = 0
  relative permittivity at zero frequency: 47.3 ± 0.95

## C[S+](C)[O-] [dimethyl sulfoxide] + OC[C@@H](O)[C@H](O)[C@@H](O)CO
[2]; 283.15 K, w2 = 0
  relative permittivity at zero frequency: 50.58 ± 1
[2]; 288.15 K, w2 = 0
  relative permittivity at zero frequency: 49.42 ± 0.99
[2]; 293.15 K, w2 = 0
  relative permittivity at zero frequency: 47.81 ± 0.96
[2]; 298.15 K, w2 = 0
  relative permittivity at zero frequency: 47.3 ± 0.95

## OC[C@@H](O)[C@@H](O)[C@H](O)[C@H](O)CO [mannitol] + C[S+](C)[O-]
[2]; 283.15 K, w1 = 0.05
  relative permittivity at zero frequency: 52.35 ± 1.1
[2]; 283.15 K, w1 = 0.1
  relative permittivity at zero frequency: 55.31 ± 1.1
[2]; 283.15 K, w1 = 0.15
  relative permittivity at zero frequency: 56.79 ± 1.1
[2]; 288.15 K, w1 = 0.05
  relative permittivity at zero frequency: 50.82 ± 1
[2]; 288.15 K, w1 = 0.1
  relative permittivity at zero frequency: 52.92 ± 1.1
[2]; 288.15 K, w1 = 0.15
  relative permittivity at zero frequency: 55.37 ± 1.1
[2]; 293.15 K, w1 = 0.05
  relative permittivity at zero frequency: 49.49 ± 0.99
[2]; 293.15 K, w1 = 0.1
  relative permittivity at zero frequency: 51.48 ± 1
[2]; 293.15 K, w1 = 0.15
  relative permittivity at zero frequency: 53.15 ± 1.1
[2]; 298.15 K, w1 = 0.05
  relative permittivity at zero frequency: 48.89 ± 0.98
[2]; 298.15 K, w1 = 0.1
  relative permittivity at zero frequency: 50.27 ± 1
[2]; 298.15 K, w1 = 0.15
  relative permittivity at zero frequency: 52.18 ± 1

## OC[C@@H](O)[C@@H](O)CO [meso-1,2,3,4-butanetetrol] + C[S+](C)[O-]
[2]; 283.15 K, w1 = 0.05
  relative permittivity at zero frequency: 51.26 ± 1
[2]; 283.15 K, w1 = 0.1
  relative permittivity at zero frequency: 54.06 ± 1.1
[2]; 283.15 K, w1 = 0.15
  relative permittivity at zero frequency: 55.7 ± 1.1
[2]; 283.15 K, w1 = 0.2
  relative permittivity at zero frequency: 57.23 ± 1.1
[2]; 283.15 K, w1 = 0.25
  relative permittivity at zero frequency: 58.96 ± 1.2
[2]; 288.15 K, w1 = 0.05
  relative permittivity at zero frequency: 50.01 ± 1
[2]; 288.15 K, w1 = 0.1
  relative permittivity at zero frequency: 51.84 ± 1
[2]; 288.15 K, w1 = 0.15
  relative permittivity at zero frequency: 52.87 ± 1.1
[2]; 288.15 K, w1 = 0.2
  relative permittivity at zero frequency: 54.96 ± 1.1
[2]; 288.15 K, w1 = 0.25
  relative permittivity at zero frequency: 55.78 ± 1.1
[2]; 293.15 K, w1 = 0.05
  relative permittivity at zero frequency: 48.57 ± 0.97
[2]; 293.15 K, w1 = 0.1
  relative permittivity at zero frequency: 50.49 ± 1
[2]; 293.15 K, w1 = 0.15
  relative permittivity at zero frequency: 51.35 ± 1
[2]; 293.15 K, w1 = 0.2
  relative permittivity at zero frequency: 53.36 ± 1.1
[2]; 293.15 K, w1 = 0.25
  relative permittivity at zero frequency: 54.3 ± 1.1
[2]; 298.15 K, w1 = 0.05
  relative permittivity at zero frequency: 47.78 ± 0.96
[2]; 298.15 K, w1 = 0.1
  relative permittivity at zero frequency: 48.96 ± 0.98
[2]; 298.15 K, w1 = 0.15
  relative permittivity at zero frequency: 50.43 ± 1
[2]; 298.15 K, w1 = 0.2
  relative permittivity at zero frequency: 52.23 ± 1.1
[2]; 298.15 K, w1 = 0.25
  relative permittivity at zero frequency: 52.77 ± 1.1

## OC[C@@H](O)[C@H](O)[C@@H](O)CO [xylitol] + C[S+](C)[O-]
[2]; 283.15 K, w1 = 0.05
  relative permittivity at zero frequency: 52.53 ± 1.1
[2]; 283.15 K, w1 = 0.1
  relative permittivity at zero frequency: 53.28 ± 1.1
[2]; 283.15 K, w1 = 0.15
  relative permittivity at zero frequency: 56.35 ± 1.1
[2]; 283.15 K, w1 = 0.2
  relative permittivity at zero frequency: 58.46 ± 1.2
[2]; 283.15 K, w1 = 0.25
  relative permittivity at zero frequency: 58.08 ± 1.2
[2]; 288.15 K, w1 = 0.05
  relative permittivity at zero frequency: 50.33 ± 1
[2]; 288.15 K, w1 = 0.1
  relative permittivity at zero frequency: 51.31 ± 1
[2]; 288.15 K, w1 = 0.15
  relative permittivity at zero frequency: 53.72 ± 1.1
[2]; 288.15 K, w1 = 0.2
  relative permittivity at zero frequency: 55.28 ± 1.1
[2]; 288.15 K, w1 = 0.25
  relative permittivity at zero frequency: 55.18 ± 1.1
[2]; 293.15 K, w1 = 0.05
  relative permittivity at zero frequency: 49.39 ± 0.99
[2]; 293.15 K, w1 = 0.1
  relative permittivity at zero frequency: 50.11 ± 1
[2]; 293.15 K, w1 = 0.15
  relative permittivity at zero frequency: 52.45 ± 1.1
[2]; 293.15 K, w1 = 0.2
  relative permittivity at zero frequency: 53.97 ± 1.1
[2]; 293.15 K, w1 = 0.25
  relative permittivity at zero frequency: 54.23 ± 1.1
[2]; 298.15 K, w1 = 0.05
  relative permittivity at zero frequency: 48.1 ± 0.96
[2]; 298.15 K, w1 = 0.1
  relative permittivity at zero frequency: 49.63 ± 0.99
[2]; 298.15 K, w1 = 0.15
  relative permittivity at zero frequency: 51.6 ± 1
[2]; 298.15 K, w1 = 0.2
  relative permittivity at zero frequency: 53.03 ± 1.1
[2]; 298.15 K, w1 = 0.25
  relative permittivity at zero frequency: 53.69 ± 1.1
